Results published in patent US20260109721A1, “IONIZABLE CATIONIC LIPIDS INCORPORATING SILICON: SYNTHESIS AND LNP FORMULATION” (priority 2023, published 2026).

Assay: LNP size, PDI and zeta potential by Dynamic Light Scattering (Method A)
Assay type: physicochemical
Conditions: LNP formulated with the lipid, DLS
Procedure: The synthesized lipids were tested in term of in vitro transfection efficacy and toxicity on HeLa cells. In order to perform the mentioned biological tests, appropriate LNPs had to be formulated from the synthesized lipids. The formulation technique was different in Method A and B. The particle size, polydispersity index (PDI) and zeta potential of resulting LNPs were determined by means of Dynamic Light Scattering technique (DLS). Prior to biological testing the encapsulation efficiency (EE) of the loaded LNPs was determined by using RiboGreen RNA assay. In case of Method A Luc mRNA while in case of Method B GFP mRNA was transfected into the cells. In parallel with the transfection experiments, toxicity of the investigated LNPs was determined, in case of Method A resazurin assay while in case of Method B MTT assay was used. Additionally, the toxicity of the lipids was investigated on HepG2 cells and IC50 values were determined.
• 1. If needed, prepare stock solutions by solving known amounts of lipid powder into an appropriate solvent. The recommended solvent is ethanol and the recommended concentration is typically in the range 10-50 mM. Higher concentrations are preferred to allow flexibility on mRNA-LNP concentration. • 2. Remove the lipid stock solutions from the −20° C. freezer. For long-term storage, −80° C. is used. • 3. Check the vials for precipitation, DOPE (CAS #4004-05-1) (20 mM) and DSPE-PEG (CAS #474922-26-4) (5 mM) may need a 5-30 minute incubation step at 37° C. with intermittent vortexing to resuspend all contents. […] As a last resort, lipids may be heated to 50° C. to resuspend, time should be kept as short as possible to prevent oxidation or other modifying or degradative processes. • 4. Mix the lipids by vortexing for 2 minutes. • 5. […] Cooling the solution prevent excessive evaporation of ethanol or similar solvents upon opening. • 6. Meanwhile, thaw the RNA samples, including the latest SecNLuc control, by inserting the frozen tube in a room temperature aluminium block. • 7. Prepare for each LNP-formulation with identical mRNA component, an RNA master mix according to Table 1 below in a fresh tube. Use of a master mix allows more precise comparison of lipid formulations relative to each other. Split the master mix over a number of fresh tubes equal to the number of samples+controls. Each tube contains 375 μl of mRNA in 10 mM Citrate pH 4.0. • 8. Prepare for each LNP formulation with identical lipid composition a Lipid master mix according to Table 1 below in a fresh tube, exclude the lipid of interest. Use of a master mix allows more precise comparison of the novel ionizable lipid relative to each other. Split the master mix over a number of fresh tubes equal to the number of samples+controls. Each tube contains 65.5 μl of lipid master mix. • 9. Add the ionizable lipid of interest to the equally divide lipid master mix. Mix well by pipetting up and down. Label the tube according to the ionizable lipid used. • 10. Power on the L1 FM (L1 Formulation Machine uses 2 high-speed syringe pumps to mix lipids in organic solvents with mRNA in acidic aquous solution to generate well-defined LNPs. The microfluidic mixing chip involves a dean-type structure performing the high-efficiency mixing at a total flow rate (TFR) of around 12 ml/min at a 3:1 mixing ratio) and allow it to do a calibration of motor positions.
• 18. Fill a fresh syringe (C) through a blunt 18G stainless steel needle with the previously prepared RNA mixture of step 6. The volume should be approximately 85% of total formulation volume+25 μl (dead-volume). Make sure to remove all air bubbles by tapping. • 19. Fill a fresh syringe (D) through a blunt 18G stainless steel needle with the Lipid master mix. The volume should be approximately […] of total formulation volume+25 μl (dead-volume). Again, Make sure to remove all bubbles. • 20. Attach the syringes in the correct orientation, syringe A on the left and syringe B on the right • 21.

Compound | PDI | Size (nm) | Zeta potential (mV)
CCCCCCCCC(CCCCCC)C(=O)OCCCCCCN(CCCCO)CCCCCCOC(=O)C(CCCCCC)CCCCCCCC (stereo not drawn) [ALC-0315, reference compound] | 0.007 | 131.9 | −12.32
CCCCC/C=C\C/C=C\CCCCCCCCOC(CCCCCN(CCO)CCO)O[Si](C)(C)OCCCCCCCC/C=C\C/C=C\CCCCC (stereo not drawn) [Example 39, (21Z,24Z)-3-(2-hydroxyethyl)-11,11-dimethyl-9-(((9Z,12Z)-octadeca-9,12-dien-1-yl)oxy)-10,12-dioxa-3-aza-11-silatriaconta-21,24-dien-1-ol] | 0.072 | 170.4 | −9.414
CCCCC/C=C\C/C=C\CCCCCCCCO[Si](C)(C)OC(CCCCCCC/C=C\C/C=C\CCCCC)OCCCCCCN(CCO)CCO (stereo not drawn) [Example 40, (23Z,26Z)-11-((8Z,11Z)-heptadeca-8,11-dien-1-yl)-3-(2-hydroxyethyl)-13,13-dimethyl-10,12,14-trioxa-3-aza-13-siladotriaconta-23,26-dien-1-ol] | 0.020 | 152.7 | −8.912
CCCCCCCC/C=C\CCCCCCCCOC(CCCCCCCCCCCCCCC)O[Si](C)(C)OCCCCCCN(CCO)CCO (stereo not drawn) [Example 41, (Z)-3-(2-hydroxyethyl)-11,11-dimethyl-13-pentadecyl-10,12,14-trioxa-3-aza-11-siladotriacont-23-en-1-ol] | 0.031 | 144.2 | −8.54
CCCCCCCC/C=C\CCCCCCCC(OCCCCCCCCCCCCCCCC)O[Si](C)(C)OCCCCCCN(CCO)CCO (stereo not drawn) [Example 42, (Z)-13-(heptadec-8-en-1-yl)-3-(2-hydroxyethyl)-11,11-dimethyl-10,12,14-trioxa-3-aza-11-silatriacontan-1-ol] | 0.059 | 129.0 | −8.408
CCCCC/C=C\C/C=C\CCCCCCCCOC(CCCCCCCCCCCCCCC)O[Si](C)(C)OCCCCCCN(CCO)CCO (stereo not drawn) [Example 43, (23Z,26Z)-3-(2-hydroxyethyl)-11,11-dimethyl-13-pentadecyl-10,12,14-trioxa-3-aza-11-siladotriaconta-23,26-dien-1-ol] | 0.006 | 144.9 | −7.944
CCCCC/C=C\C/C=C\CCCCCCCC(OCCCCCCCCCCCCCCCC)O[Si](C)(C)OCCCCCCN(CCO)CCO (stereo not drawn) [Example 44, 13-((8Z,11Z)-heptadeca-8,11-dien-1-yl)-3-(2-hydroxyethyl)-11,11-dimethyl-10,12,14-trioxa-3-aza-11-silatriacontan-1-ol] | 0.083 | 131.2 | −8.273
CCCCC/C=C\C/C=C\CCCCCCCC(OCCCCCCCC/C=C\CCCCCCCC)O[Si](C)(C)OCCCCCCN(CCO)CCO (stereo not drawn) [Example 45, (Z)-13-((8Z,11Z)-heptadeca-8,11-dien-1-yl)-3-(2-hydroxyethyl)-11,11-dimethyl-10,12,14-trioxa-3-aza-11-siladotriacont-23-en-1-ol] | 0.043 | 136.8 | −8.85
CCCCC/C=C\C/C=C\CCCCCCCCOC(CCCCCCC/C=C\CCCCCCCC)O[Si](C)(C)OCCCCCCN(CCO)CCO (stereo not drawn) [Example 46, (23Z,26Z)-13-((Z)-heptadec-8-en-1-yl)-3-(2-hydroxyethyl)-11,11-dimethyl-10,12,14-trioxa-3-aza-11-siladotriaconta-23,26-dien-1-ol] | 0.095 | 129.4 | −7.772
CCCCCCCC/C=C\CCCCCCCCOC(CCCCCCC/C=C\CCCCCCCC)O[Si](C)(C)OCCCCCCN(CCO)CCO (stereo not drawn) [Example 47, (Z)-13-((Z)-heptadec-8-en-1-yl)-3-(2-hydroxyethyl)-11,11-dimethyl-10,12,14-trioxa-3-aza-11-siladotriacont-23-en-1-ol] | 0.014 | 125.0 | −8.469
CCCCCCCCCCCCCCCCOC(CCCCCCCCCCCCCCC)O[Si](C)(C)OCCCCCCN(CCO)CCO (stereo not drawn) [Example 49, 3-(2-hydroxyethyl)-11,11-dimethyl-13-pentadecyl-10,12,14-trioxa-3-aza-11-silatriacontan-1-ol] | 0.396 | 171.9 | −12.77
CCCCCCCC/C=C\CCCCCCCC(OCC(CCCCCC)CCCCCCCC)O[Si](C)(C)OCCCCCCN(CCO)CCO (stereo not drawn) [Example 50, (Z)-13-(heptadec-8-en-1-yl)-16-hexyl-3-(2-hydroxyethyl)-11,11-dimethyl-10,12,14-trioxa-3-aza-11-silatetracosan-1-ol] | 0.022 | 153.8 | −10.38
CCCCCCCC/C=C\CCCCCCCCOC(CC[C@@H](C)C1CCC2C3CCC4C[C@H](OC)CC[C@]4(C)C3CC[C@@]21C)O[Si](C)(C)OCCCCCCN(CCO)CCO (stereo partly drawn) [Example 51, (Z)-3-(2-hydroxyethyl)-13-((3R)-3-((3R,10S,13R)-3-methoxy-10,13-dimethylhexadecahydro-1H-cyclopenta[a]phenanthren-17-yl)butyl)-11,11-dimethyl-10,12,14-trioxa-3-aza-11-siladotriacont-23-en-1-ol] | 0.060 | 135.6 | −8.124
CCCCC/C=C\C/C=C\CCCCCCCCOC(CC[C@@H](C)C1CCC2C3CCC4C[C@H](OC)CC[C@]4(C)C3CC[C@@]21C)O[Si](C)(C)OCCCCCCN(CCO)CCO (stereo partly drawn) [Example 52, (23Z,26Z)-3-(2-hydroxyethyl)-13-((3R)-3-((3R,10S,13R)-3-methoxy-10,13-dimethylhexadecahydro-1H-cyclopenta[a]phenanthren-17-yl)butyl)-11,11-dimethyl-10,12,14-trioxa-3-aza-11-siladotriaconta-23,26-dien-1-ol] | 0.005 | 137.6 | −9.231
CCCCC/C=C\C/C=C\CCCCCCCCOC(CCCCCCC/C=C\C/C=C\CCCCC)O[Si](C)(C)OCCCCCCN1CCOCC1 (stereo not drawn) [Example 55, 4-((20Z,23Z)-10-((8Z,11Z)-heptadeca-8,11-dien-1-yl)-8,8-dimethyl-7,9,11-trioxa-8-silanonacosa-20,23-dien-1-yl)morpholine] | 0.441 | 319.9 | −10.81
CCCCC/C=C\C/C=C\CCCCCCCCOC(CCCCCCC/C=C\C/C=C\CCCCC)O[Si](C)(C)OCCCCCCN1CCCCC1 (stereo not drawn) [Example 57, 1-((20Z,23Z)-10-((8Z,11Z)-heptadeca-8,11-dien-1-yl)-8,8-dimethyl-7,9,11-trioxa-8-silanonacosa-20,23-dien-1-yl)piperidine] | 0.041 | 160.3 | −11.06
CCCCC/C=C\C/C=C\CCCCCCCCOC(CCCCCCC/C=C\C/C=C\CCCCC)O[Si](C)(C)OCCCCCCN(C)CC(O)CO (stereo not drawn) [Example 59, (24Z,27Z)-14-((8Z,11Z)-heptadeca-8,11-dien-1-yl)-4,12,12-trimethyl-11,13,15-trioxa-4-aza-12-silatritriaconta-24,27-diene-1,2-diol] | 0.105 | 112.8 | −8.941
CCCCC/C=C\C/C=C\CCCCCCCCOC(CCCCCCC/C=C\C/C=C\CCCCC)O[Si](C)(C)OCCCCCCN(C)CCCCO (stereo not drawn) [Example 60, (25Z,28Z)-15-((8Z,11Z)-heptadeca-8,11-dien-1-yl)-5,13,13-trimethyl-12,14,16-trioxa-5-aza-13-silatetratriaconta-25,28-dien-1-ol] | 0.041 | 201.0 | −7.785
